Measured values taken from patent US20060241177A1, “Novel compounds, pharmaceutical compositions containing same, and methods of use for same” (priority 2002, published 2006).

How the values were obtained:
[1] = Weight loss screen in Balb/C mice; type: in vivo
Experimental: Weight Loss Screen for Novel FAS Inhibitors
Balb/C mice (Jackson Labs) are utilized for the initial weight loss screening. Animals are housed in temperature and 12 hour day/night cycle rooms and fed mouse chow and water ad lib. Three mice are utilized for each compound tested with vehicle controls in triplicate per experiment. For the experiments, mice are housed separately for each compound tested three mice to a cage. Compounds are diluted in DMSO at 10 mg/ml when given at a dose of 30 mg/kg, and 30 mg/ml when given at a dose of 60 mg/kg, and mice are injected intraperitoneally with 60 mg/kg in approximately 100 μl of DMSO or with vehicle alone. Mice are observed and weighed daily; average weights and standard errors are computed with Excel (Microsoft). The experiment continues until treated animals reach their pretreatment weights. Select compounds are tested in animals housed in metabolic cages.
Dosing of animals are identical to the screening experiments with three animals to a single metabolic cage. Animal weights, water and food consumption, and urine and feces production are measured daily. Three lean Balb/C mice (Harlan) maintained on mouse chow, are treated with compounds at doses indicated on day 0 or with vehicle (DMSO) control of equal volume. Compound 6 was solubilized in 40 μl DMSO while Compound 8 was solubilized in 60 μl DMSO. All were injected intraperitoneally. Weights were measured on days indicated. Error bars represent standard error of the mean.

[2] = biological target: T1, Carnitine Palmitoyltransferase-1 (CPT-1) (Homo sapiens, UniProt P50416); test: Carnitine palmitoyltransferase-1 (CPT-1) assay in permeabilized MCF-7 cells; type: cell-based; conditions: MCF at 10 ug.ml
T1 construct: This assay uses permeabilized cells to measure the transfer of [methyl-^14C]L-carnitine; endogenous in cells; host or cells: MCF-7 cells, digitonin-permeabilized
T1 sequence (P50416 1-773): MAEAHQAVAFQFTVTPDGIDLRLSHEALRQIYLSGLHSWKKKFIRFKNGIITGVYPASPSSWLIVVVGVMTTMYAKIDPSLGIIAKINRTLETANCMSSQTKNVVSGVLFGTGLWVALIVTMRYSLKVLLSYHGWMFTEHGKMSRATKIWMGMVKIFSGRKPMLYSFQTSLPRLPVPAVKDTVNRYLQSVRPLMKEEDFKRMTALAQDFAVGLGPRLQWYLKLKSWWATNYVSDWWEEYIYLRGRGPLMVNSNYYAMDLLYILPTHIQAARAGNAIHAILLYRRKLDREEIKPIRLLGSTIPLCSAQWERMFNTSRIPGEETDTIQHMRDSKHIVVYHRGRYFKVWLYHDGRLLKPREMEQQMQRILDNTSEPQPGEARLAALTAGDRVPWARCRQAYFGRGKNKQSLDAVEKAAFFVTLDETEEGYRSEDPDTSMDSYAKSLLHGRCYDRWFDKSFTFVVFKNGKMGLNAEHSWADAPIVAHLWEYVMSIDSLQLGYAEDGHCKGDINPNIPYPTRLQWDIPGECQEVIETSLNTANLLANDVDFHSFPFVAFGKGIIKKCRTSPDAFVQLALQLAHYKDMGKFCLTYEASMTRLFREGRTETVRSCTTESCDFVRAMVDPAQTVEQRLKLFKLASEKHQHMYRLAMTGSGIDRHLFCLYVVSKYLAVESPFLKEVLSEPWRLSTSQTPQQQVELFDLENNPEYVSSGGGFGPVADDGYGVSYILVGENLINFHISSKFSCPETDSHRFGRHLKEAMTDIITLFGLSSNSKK
Experimental: Carnitine Palmitoyltransferase-1 (CPT-1) Assay
CPT-1 catalyzes the ATP dependent transfer of long-chain fatty acids from acyl-CoA to acyl-carnitine that is inhibited by malonyl-CoA. As CPT-1 requires the mitochondrial membrane for activity, enzyme activity is measured in permeabilized cells or mitochondria This assay uses permeabilized cells to measure the transfer of [methyl-^14C]L-carnitine to the organically soluble acyl-carnitine deriviative.
MCF-7 cells are plated in DMEM with 10% fetal bovine serum at 10^6 cells in 24-well plates in triplicate for controls, drugs, and malonyl-CoA. Two hours before commencing the assay, drugs are added at the indicated concentrations made from stock solutions at 10 mg/ml in DMSO, vehicle controls consist of DMSO without drug. Since malonyl-CoA cannot enter intact cells, it is only added in the assay buffer to cells that have not been preincubated with drugs. Following overnight incubation at 37° C., the medium is removed and replaced with 700 μl of assay buffer consisting of: 50 mM imidazole, 70 mM KCl, 80 mM sucrose, 1 mM EGTA, 2 mM MgCl2, 1 mM DTT, 1 mM KCN, 1 mM ATP, 0.1% fatty acid free bovine serum albumin, 70 μM palmitoyl-CoA, 0.25 μCi [methyl-^14C]L-carnitine, 40 μg digitonin with drug, DMSO vehicle control, or 20 μM malonyl-CoA. […] The butanol phase is counted by liquid scintillation and represents the acylcarnitine derivative.

[3] = 30 mg/kg i.p., day 1, three Balb/C mice per compound

C=C1C(=O)O[C@@H](CCCCCCCC)[C@@H]1C(=O)NCC(=O)OC (racemic)
Deaths in weight loss screen [1, 3]: 3 of 3 dead

C=C1C(=O)O[C@@H](CCCCCCCC)[C@@H]1C(=O)NCC(=O)O (racemic)
Deaths in weight loss screen ([1]; 30 mg/kg i.p., day 6, three Balb/C mice per compound): 1 death

C=CCNC(=O)[C@@H]1C(=C)C(=O)O[C@H]1CCCCCC (racemic)
Deaths in weight loss screen [1, 3]: 1 of 3 dead

C=CCNC(=O)[C@@H]1C(=C)C(=O)O[C@H]1CCCC (racemic)
Deaths in weight loss screen ([1]; 30 mg/kg i.p., day 2, three Balb/C mice per compound): 3 of 3 dead

C=CCNC(=O)[C@@H]1C(=C)C(=O)O[C@H]1CCCCCCCC (racemic)
CPT I Stim [2]: 400% of control/MCF | Deaths in weight loss screen ([1]; 60 mg/kg i.p., day 3, three Balb/C mice per compound): 3 of 3 dead
